In ChEMBL document CHEMBL1201862, “PubChem BioAssay data set” (2004):
Active and inactive are the calls of the source. For most assays here, no stated cut-off is given here; in the data, actives have a measured EC50 and inactives only a lower limit.

Columns and labels:
[1] = NIH-3T3 fibroblast cytotoxicity, dose response, cytotoxicity control, cell-based, fluorescence, Alamar Blue, secondary assay (AID 2327); assay type: functional;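 further: NIH-3T3 mouse fibroblasts cultured with fluconazole at 8 µg/mL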
[2] = C. albicans growth with fluconazole, confirmation, fluorescence, retest (AID 2467); assay type: functional, cell-based
[3] = cytotoxicity toward NIH3T3 fibroblasts, dose response, counter-screen, cell-based, ATP luminescence, mouse fibroblasts (AID 2010); assay type: functional;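 further: cells exposed to compound for about 90 hours before reading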
[4] = inhibitors of intracellular T. cruzi replication, confirmation, NIH3T3 host cells, beta-gal luminescence (AID 2044); assay type: functional, cell-based;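 further: intracellular parasites grown in NIH/3T3 mouse fibroblasts as host cells; luminescent beta-galactosidase reporter signal from transgenic T. cruzi replicating inside host cells; inhibitors lower the luminescence signal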
[5] = Luminescence Cell-Based Dose Confirmation HTS to Identify Inhibitors of Platelet Dense Granule Release. [Related pubchem assays: 1663 (Primary HTS), 1678 (Summary of Project)]; assay type: functional
[6] = target: Luciferin 4-monooxygenase (Photinus pyralis, UniProt P08659); experiment: firefly luciferase enzyme inhibitors, dose response, biochemical, luminescence (AID 1891)
[7] = target: T1, Replicative DNA helicase DnaB (Mycobacterium tuberculosis, UniProt P9WMR3); experiment: DnaB intein splicing inhibitors, dose response, biochemical, cell-free fluorescence (AID 449749); assay type: functional
T1 sequence (P9WMR3 whole entry): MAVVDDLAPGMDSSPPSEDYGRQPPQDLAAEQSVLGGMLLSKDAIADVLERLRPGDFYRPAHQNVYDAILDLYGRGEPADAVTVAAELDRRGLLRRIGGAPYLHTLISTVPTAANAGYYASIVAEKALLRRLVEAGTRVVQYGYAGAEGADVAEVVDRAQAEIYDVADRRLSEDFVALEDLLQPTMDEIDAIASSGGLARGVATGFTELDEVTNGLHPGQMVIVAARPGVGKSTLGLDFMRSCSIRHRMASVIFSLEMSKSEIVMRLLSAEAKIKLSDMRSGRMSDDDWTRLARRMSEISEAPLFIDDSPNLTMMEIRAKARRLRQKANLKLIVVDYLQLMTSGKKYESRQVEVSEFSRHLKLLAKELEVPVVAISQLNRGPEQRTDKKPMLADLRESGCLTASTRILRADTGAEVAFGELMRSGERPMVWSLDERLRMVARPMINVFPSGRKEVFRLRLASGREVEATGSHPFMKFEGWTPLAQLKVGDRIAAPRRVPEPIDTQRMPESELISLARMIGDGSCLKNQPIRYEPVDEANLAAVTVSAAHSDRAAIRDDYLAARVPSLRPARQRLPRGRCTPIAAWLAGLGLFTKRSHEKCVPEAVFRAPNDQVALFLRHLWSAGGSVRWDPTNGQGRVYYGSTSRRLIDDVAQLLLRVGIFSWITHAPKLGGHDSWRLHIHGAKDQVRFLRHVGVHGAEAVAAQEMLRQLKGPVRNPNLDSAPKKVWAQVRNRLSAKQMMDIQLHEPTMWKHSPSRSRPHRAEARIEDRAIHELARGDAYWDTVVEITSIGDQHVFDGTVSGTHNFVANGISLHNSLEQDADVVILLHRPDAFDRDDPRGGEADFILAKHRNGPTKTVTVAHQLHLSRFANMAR

Protein RecA = target: T2, Protein RecA (Mycobacterium tuberculosis, UniProt P9WHJ3); experiment: Fluorescence Cell-Free Homogeneous Dose Retest to Identify Inhibitors of RecA-Intein Splicing Activity. [Related pubchem assays (depositor defined):AID2097, AID2223, AID489010, AID492950]; assay type: functional
T2 sequence (P9WHJ3 whole entry): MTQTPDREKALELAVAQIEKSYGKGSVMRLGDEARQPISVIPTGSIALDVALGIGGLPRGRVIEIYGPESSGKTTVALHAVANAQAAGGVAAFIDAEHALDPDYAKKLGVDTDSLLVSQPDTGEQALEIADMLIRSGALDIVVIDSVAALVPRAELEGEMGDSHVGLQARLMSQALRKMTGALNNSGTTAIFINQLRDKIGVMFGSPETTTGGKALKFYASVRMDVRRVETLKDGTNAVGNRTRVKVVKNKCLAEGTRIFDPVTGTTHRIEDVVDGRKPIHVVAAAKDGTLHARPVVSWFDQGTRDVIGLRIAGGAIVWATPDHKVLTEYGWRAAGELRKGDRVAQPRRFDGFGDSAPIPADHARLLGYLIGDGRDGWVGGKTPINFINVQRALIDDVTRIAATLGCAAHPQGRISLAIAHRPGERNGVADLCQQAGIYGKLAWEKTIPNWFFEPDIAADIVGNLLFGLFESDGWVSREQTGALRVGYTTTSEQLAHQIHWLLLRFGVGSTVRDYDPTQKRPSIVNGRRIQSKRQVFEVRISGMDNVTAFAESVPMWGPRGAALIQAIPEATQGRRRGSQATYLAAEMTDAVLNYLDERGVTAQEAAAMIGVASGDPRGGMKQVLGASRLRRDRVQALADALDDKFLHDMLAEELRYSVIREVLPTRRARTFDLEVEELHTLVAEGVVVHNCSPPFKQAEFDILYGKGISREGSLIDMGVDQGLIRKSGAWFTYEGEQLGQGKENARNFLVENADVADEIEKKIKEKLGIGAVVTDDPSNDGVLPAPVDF

Paired box protein Pax-8 = Paired box protein Pax-8 (Homo sapiens, UniProt Q06710); experiment: inhibitors of PAX8-driven TPO luciferase reporter, dose response, RMG-I cells, cherry-pick (AID 687027); assay type: functional, cell-based;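 further: luciferase reporter driven by Pax8 target thyroperoxidase promoter measured by SteadyGlo luminescence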
[8] = target: T3, Ubiquitin-conjugating enzyme E2 N (Homo sapiens, UniProt P61088); assay type: functional;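 further: Dose-response confirmation in a TR-FRET assay detecting UBC13-driven polyubiquitin chain formation, inhibition measured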
T3 sequence (P61088 whole entry): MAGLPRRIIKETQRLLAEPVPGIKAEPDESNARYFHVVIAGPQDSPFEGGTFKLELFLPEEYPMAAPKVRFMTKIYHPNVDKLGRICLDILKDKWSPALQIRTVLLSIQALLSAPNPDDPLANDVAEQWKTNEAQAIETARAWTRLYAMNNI

[9] = Luminescence Cell-Based Dose Retest to Confirm Inhibitors of Cancer Stem Cells. [Related pubchem assays (depositor defined):AID2717, AID2721]; assay type: functional; details: Homo sapiens
[10] = Shn3 3'UTR reporter inhibitors, dose response, cell-based, Clone20 osteoblasts, firefly luciferase, cherry-picked (AID 624132); assay type: functional;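 further: firefly luciferase luminescence from reporter carrying the Shn3 3'UTR in osteoblasts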
[11] = target: T4, Corticotropin-releasing factor receptor 2/Corticotropin-releasing factor-binding protein (Homo sapiens, UniProt P24387+Q13324); experiment: activators of CRF receptor 2 with binding protein – uHTS hits, confirmation (AID 602473); assay type: functional; details: read-out: EC50_Mean
T4 sequence (Q13324 whole entry): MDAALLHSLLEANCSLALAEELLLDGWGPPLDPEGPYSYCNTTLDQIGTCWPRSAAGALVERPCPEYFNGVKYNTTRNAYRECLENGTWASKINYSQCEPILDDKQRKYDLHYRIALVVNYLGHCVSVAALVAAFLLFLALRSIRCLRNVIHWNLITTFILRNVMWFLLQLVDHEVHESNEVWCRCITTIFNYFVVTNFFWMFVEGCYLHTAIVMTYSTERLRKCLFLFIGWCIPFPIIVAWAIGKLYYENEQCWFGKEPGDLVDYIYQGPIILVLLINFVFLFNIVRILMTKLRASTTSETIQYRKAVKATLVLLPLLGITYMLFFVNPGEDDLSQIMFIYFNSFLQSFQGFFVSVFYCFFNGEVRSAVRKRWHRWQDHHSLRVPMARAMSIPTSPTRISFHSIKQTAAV
T4 sequence (P24387 whole entry): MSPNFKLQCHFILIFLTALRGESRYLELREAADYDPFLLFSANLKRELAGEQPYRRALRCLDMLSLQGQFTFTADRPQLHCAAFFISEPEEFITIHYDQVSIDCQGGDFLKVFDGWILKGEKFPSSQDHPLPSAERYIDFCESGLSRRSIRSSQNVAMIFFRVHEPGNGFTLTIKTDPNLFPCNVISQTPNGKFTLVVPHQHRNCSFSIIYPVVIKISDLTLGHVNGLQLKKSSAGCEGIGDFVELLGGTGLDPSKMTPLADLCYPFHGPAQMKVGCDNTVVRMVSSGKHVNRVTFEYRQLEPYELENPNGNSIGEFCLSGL

[12] = inhibitors of clade B AD8 Env fusion, dose response, cell-based, cherry-pick (AID 652062); assay type: functional;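 further: luciferase signal from cell-cell fusion driven by HIV-1 clade B AD8 Env; potency is for inhibitors of fusion seen as a drop in luminescence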

Sequence of Luciferin 4-monooxygenase (P08659 whole entry): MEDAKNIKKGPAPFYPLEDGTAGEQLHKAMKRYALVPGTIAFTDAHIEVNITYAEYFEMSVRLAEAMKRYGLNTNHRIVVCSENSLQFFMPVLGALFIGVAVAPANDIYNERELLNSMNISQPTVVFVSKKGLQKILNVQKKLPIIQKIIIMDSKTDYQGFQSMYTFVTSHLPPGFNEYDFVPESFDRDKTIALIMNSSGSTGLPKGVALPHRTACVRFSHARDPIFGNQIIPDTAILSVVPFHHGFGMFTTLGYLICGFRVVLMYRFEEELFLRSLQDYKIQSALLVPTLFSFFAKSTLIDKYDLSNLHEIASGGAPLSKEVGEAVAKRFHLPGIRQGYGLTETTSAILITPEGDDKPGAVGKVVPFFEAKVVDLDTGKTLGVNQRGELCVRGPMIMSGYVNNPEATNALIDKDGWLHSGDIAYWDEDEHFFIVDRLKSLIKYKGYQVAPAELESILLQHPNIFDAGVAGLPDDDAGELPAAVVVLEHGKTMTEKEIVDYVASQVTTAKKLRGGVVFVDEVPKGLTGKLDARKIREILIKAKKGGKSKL
Sequence of Paired box protein Pax-8 (Q06710 whole entry): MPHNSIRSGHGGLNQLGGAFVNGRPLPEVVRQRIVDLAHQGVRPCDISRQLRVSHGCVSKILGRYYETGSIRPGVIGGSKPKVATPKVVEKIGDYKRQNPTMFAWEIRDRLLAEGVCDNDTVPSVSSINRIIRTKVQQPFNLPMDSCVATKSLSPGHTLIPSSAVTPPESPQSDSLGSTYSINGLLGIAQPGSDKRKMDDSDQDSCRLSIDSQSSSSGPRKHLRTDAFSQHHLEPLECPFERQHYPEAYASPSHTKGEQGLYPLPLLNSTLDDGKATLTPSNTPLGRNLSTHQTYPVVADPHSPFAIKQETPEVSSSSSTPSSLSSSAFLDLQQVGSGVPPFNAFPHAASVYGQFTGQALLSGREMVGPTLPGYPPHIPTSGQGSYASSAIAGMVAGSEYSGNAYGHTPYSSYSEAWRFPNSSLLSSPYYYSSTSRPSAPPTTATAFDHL

With C/[N+]([O-])=C\c1ccc([N+](=O)[O-])o1 the EC50 [1] was > 160 µM (inactive), the EC50 [2] was 0.885 µM (active) and the EC50 [3] was > 60 µM (not active). The EC50 [4] was 0.54 µM (active).

With O=C(Nc1ccc(C(=O)N2CCN(c3ccc(Cl)cc3)CC2)cc1)C1=CSCCO1 the EC50 [5] was > 112 µM (not active) and the EC50 [6] was 31.2 µM (active).

With COc1ccc(C(=O)n2nnc3ccccc32)cc1Br the AC50 [7] was 24.6 µM (active) and the EC50 (Protein RecA) was 30 µM (active).

In the case of CC[n+]1ccc2cc(OC)c(OC)cc2c1Cc1ccc(OC)c(OC)c1, the AC50 [7] is reported as > 120 µM (inactive) and the EC50 (Protein RecA) is reported as > 380 µM (inactive).

For Cc1ccc2nc(Cl)c3nnnn3c2c1, the EC50 [1] was 4.94 µM (inconclusive) and the EC50 [2] was 0.646 µM (active).

For CC1(C)CC(=O)C=C(Nc2ccc3c(c2)OCCO3)C1, the EC50 [5] was 11 µM (active) and the EC50 [6] was > 112 µM (not active).

For CCN(CC)CC(=O)n1c2c(c3ccccc31)CCCC2, the EC50 [5] was > 112 µM (not active) and the EC50 [6] was > 112 µM (not active).

In the case of COC(=O)C1=C(c2ccc(F)cc2OCc2ccccc2)C[C@@H]2CC[C@H]1N2C(=O)NCc1ccc(C)cc1, the AC50 (Paired box protein Pax-8) is reported as 15.1 µM (active).

With Cn1c(SCC(=O)NCC2CCCO2)ncc(C(=O)Nc2ccccc2)c1=O (centres undefined) the AC50 [7] was 28 µM (active) and the EC50 (Protein RecA) was 3.38 µM (active).

With Oc1ccc(C2=NN=C(NCc3ccc4c(c3)OCO4)SC2)c(O)c1 the IC50 [8] was > 20 µM (inactive).

For O=C(CSc1cccc[n+]1[O-])CSc1cccc[n+]1[O-], the EC50 [1] was > 160 µM (inactive), the EC50 [2] was 3.9 µM (active) and the EC50 [3] was > 30 µM (not active). For the same compound, the EC50 [4] was 6.09 µM (active).

For Cc1c(CCOC(=O)CC23CC4CC(CC(C4)C2)C3)sc[n+]1CC(=O)c1ccc(Br)cc1, the AC50 [9] was 2.42 µM (active), the AC50 [10] was 12.9 µM (active) and the IC50 [8] was > 20 µM (inactive).

With O=S(=O)(Nc1ccc(-c2ccc(N3CCOCC3)nn2)cc1)c1ccc(Cl)c(Cl)c1 the EC50 [5] was > 112 µM (not active) and the EC50 [6] was 35.3 µM (active).

With COc1ccc(/C=C2/C(=O)N(c3cccc(F)c3)N=C2C)c(OC)c1 the AC50 [7] was 4.14 µM (active) and the EC50 (Protein RecA) was 44.6 µM (active).

For Oc1ccc2ccccc2c1CNc1ccccn1, the IC50 [8] was > 20 µM (inactive).

With COc1cc2c(cc1OC)C(c1c(Cl)cccc1Cl)NC(=O)C2 (centres undefined) the EC50 [11] was 10.9 µM (active).

In the case of COc1ccccc1NS(=O)(=O)c1cc(NC(=O)CCC(=O)c2cccs2)ccc1Cl, the EC50 [1] is reported as 123 µM (active) and the EC50 [2] is reported as 0.417 µM (active).

With COc1nc2ccccc2nc1OC the EC50 [5] was > 112 µM (not active) and the EC50 [6] was > 112 µM (not active).

In the case of Cc1cccc(OCC(=O)Oc2ccc(Cl)cc2)c1, the AC50 [7] is reported as 9.75 µM (active) and the EC50 (Protein RecA) is reported as 35.1 µM (active).

With CCN(C[C@H]1N[C@@](Cc2ccccc2)(C(=O)OC)[C@H]2C(=O)N(Cc3ccccc3)C(=O)[C@@H]12)C(=O)C1CCCCC1 the EC50 [11] was 5.33 µM (active).

With CC1=NN(C)C(=O)C1Cc1c(F)cccc1Cl (centres undefined) the AC50 [7] was 5.39 µM (active) and the EC50 (Protein RecA) was 0.74 µM (active).

In the case of CN(C)/C=N/c1nccc(-c2cccs2)n1, the EC50 [11] is reported as > 53 µM (inactive).

For CN(C)Cc1cn(CC[C@@H]2CC[C@H](N)[C@H](CO)O2)nn1, the AC50 [12] was 22.9 µM (active).

In the case of Cc1ccc(OCC(=O)N/N=C\c2c(C)[nH]n(-c3ccccc3)c2=O)c([N+](=O)[O-])c1, the EC50 [1] is reported as > 150 µM (inactive) and the EC50 [2] is reported as 6.77 µM (active).

With C/C(CC(=O)Nc1ccc(Cl)cn1)=N\NC(=O)Cc1cccs1 the AC50 [7] was 30.5 µM (active) and the EC50 (Protein RecA) was 5.12 µM (active).

With Nc1c(Cl)ncnc1N/N=C/c1cccc(O)c1 the EC50 [5] was 22 µM (active) and the EC50 [6] was 58.1 µM (active).

In the case of Cc1ccc(-n2nc(C)c(/C=N/NC(=O)c3ccc([N+](=O)[O-])cc3)c2O)c(C)c1, the AC50 [7] is reported as 6.38 µM (active), the EC50 [1] is reported as 11.7 µM (active) and the EC50 (Protein RecA) is reported as 21.2 µM (active). For the same compound, the EC50 [2] was 1.71 µM (active).
